Results reported in US9962388B2, “Pyrrolopyrimidine compounds used as TLR7 agonist” (priority 2014, dated 2018).
pEC50: −log10 of the molar value. Where two headings read alike, the source gives them in different places.

Assays:
Toll-like receptor 7 = Toll-like receptor 7 (Homo sapiens (Human), UniProt Q9NYK1); experiment: Toll-like receptor 7 in vitro receptor binding activity screen (HEK-blue hTLR7 cell, alkaline phosphatase/Quanti-Blue readout); type: cell-based; conditions: for pEC50: HEK-blue hTLR7 cell, read-out: TLR7 EC50
Chain of Toll-like receptor 7 (Q9NYK1 27-1049): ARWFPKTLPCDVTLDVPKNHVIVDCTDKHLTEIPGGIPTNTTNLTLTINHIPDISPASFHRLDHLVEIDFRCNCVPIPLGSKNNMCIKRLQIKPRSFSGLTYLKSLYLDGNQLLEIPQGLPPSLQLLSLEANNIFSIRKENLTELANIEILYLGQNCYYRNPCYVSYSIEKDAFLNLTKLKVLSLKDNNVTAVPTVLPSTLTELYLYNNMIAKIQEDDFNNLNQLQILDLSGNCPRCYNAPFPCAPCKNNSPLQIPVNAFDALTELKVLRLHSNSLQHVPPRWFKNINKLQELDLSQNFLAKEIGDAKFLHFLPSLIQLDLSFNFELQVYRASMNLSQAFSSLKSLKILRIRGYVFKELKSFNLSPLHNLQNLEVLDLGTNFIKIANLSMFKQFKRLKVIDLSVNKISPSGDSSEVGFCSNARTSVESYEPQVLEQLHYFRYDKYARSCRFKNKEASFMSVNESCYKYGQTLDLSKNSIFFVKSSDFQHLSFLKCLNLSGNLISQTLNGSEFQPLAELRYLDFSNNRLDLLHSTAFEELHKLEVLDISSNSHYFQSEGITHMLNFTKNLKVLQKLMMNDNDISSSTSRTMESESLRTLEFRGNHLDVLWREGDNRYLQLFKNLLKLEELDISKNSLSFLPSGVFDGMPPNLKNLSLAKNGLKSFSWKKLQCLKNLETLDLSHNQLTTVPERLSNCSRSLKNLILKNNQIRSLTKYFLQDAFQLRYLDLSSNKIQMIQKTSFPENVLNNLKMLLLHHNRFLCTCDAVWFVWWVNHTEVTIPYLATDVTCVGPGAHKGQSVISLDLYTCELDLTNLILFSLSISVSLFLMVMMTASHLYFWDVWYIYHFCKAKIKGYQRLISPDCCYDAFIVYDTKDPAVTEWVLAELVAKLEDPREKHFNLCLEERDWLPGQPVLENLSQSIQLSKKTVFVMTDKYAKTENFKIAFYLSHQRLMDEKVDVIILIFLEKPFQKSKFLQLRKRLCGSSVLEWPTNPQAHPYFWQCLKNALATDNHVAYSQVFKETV
Method: (§1) Toll-Like Receptor 7 and Toll-Like Receptor 8 In Vitro Receptor Binding Activity Screen
(§2) HEK-blue hTLR7 cell and HEK-blue hTLR8 cell (available from InvivoGen)
(§3) 1. Preparation of 96-well compound plate:
(§4) The compounds were gradient diluted with DMSO in 3-fold using liquid work station POD starting at a concentration of 10 mmol/L and 10 points were diluted (2nd column to 11th column, and each point was duplicated). At 12th column, 1 μL of 5 mg/mL positive compound R848 was added as positive control; and at 1st column, 1 μL of DMSO was added as negative control. Each well contained 1 μL of DMSO.
(§5) 2. The cells in culture flask were collected and the cell density was diluted to 250,000 cells/mL.
(§6) 3. 200 μL (50,000 cells/well) of cell suspension was added into prepared compound plate and the final concentration of DMSO in each well was 0.5%.
(§7) 4. The culture plates containing cells and the compounds were incubated in CO2 incubator for 24 h at 37° C., 5% CO2.
(§8) 5. After 24 h incubation, 20 μL of supernatant was removed from each well to a 96-well transparent assay plate. To each well of the assay plate was added 180 μL of Quanti-Blue reagent and the plate was incubated in an incubator at 37° C., 5% CO2 for 1 h.
(§9) 6. After 1 h, the content of alkaline phosphatase in 20 μL of supernatant was determined using Microplate Reader OD650.
(§10) 7. EC50 of each compound was obtained with Prism software.

[1] = tested on: human peripheral blood mononuclear cells (PBMC); experiment: Peripheral blood mononuclear cell assay (cytokine induction, CBA); type: cell-based; conditions: for minimal effective concentration: Homo sapiens, read-out: INF-α MEC
Method: Peripheral Blood Mononuclear Cell Assay The purpose of this example is to determine the expression level of cytokines 24 h after stimulation to human peripheral blood mononuclear cells (PBMC) with the compounds. The cell supernatant was assayed without dilution and the levels of IFN-α and TNF-α were directly determined. The compound was firstly formulated into 20 mM DMSO stock solution and was gradient diluted with cell medium in 10-fold with the total number of 11 diluting points. The compounds in 9 diluting points (the highest concentration was 200 μmol/L) were added into 96-well plate with 50 μL in each well. Fresh human peripheral blood mononuclear cells were inoculated, with 150 μL in each well containing 450,000 cells. The cell culture plate was incubated in an incubator at 37° C., 5% CO2 for 24 h. After incubation, the culture plate was centrifuged at 1200 rpm for 5 min and the supernatant was collected and stored at −20° C. for determination. The determination of cytokine was performed using Cytometric Bead Array (CBA) of BD-Pharmingen on flow cytometer. Using the above determining method, the lowest drug concentration stimulating cytokine level which is over 3 times greater than the lowest detectable limit was designated as the MEC (Minimal Effective Concentration) value in the cytokine stimulating test.

hepatitis b virus = experiment: In vivo pharmacodynamics in HDI (hydrodynamic injection) mouse model infected with hepatitis b virus; conditions: 20 mg/kg intragastric, once a day, day 1 to day 7; FIGS. 1 and 2
Method: In Vivo Pharmacodynamics in HDI (Hydrodynamic Injection) Mouse Model Infected with Hepatitis b Virus
Experimental Design and Procedures:
Route: intragastric administration
Administration time: day 1 to day 7, 7 days in total
At day 1, 3, 5 and 7, plasma samples were collected 4 h after administration; and at day 7, liver sample was collected 4 h after administration.

duck hepatitis b virus = experiment: In vivo pharmacodynamics in duckling model infected with hepatitis B virus; parameters: species or system Beijing ducks
Method: In Vivo Pharmacodynamics in Duckling Model Infected with Hepatitis B Virus
Experimental design and procedures: Beijing ducks of 1 day old were intravenously administered duck hepatitis b virus positive duck serum. After 7 days, the animals were administered according to grouping, 6 ducks in each group. Control group: normal saline. […] The samples were administered intragastricly: 20 mg/kg groups were administered once every third day (one administration every 3 days) and 5 mg/kg groups were administered once every day for 16 days. […] For control group infected with duck hepatitis b virus, solvent was used instead of drug. 7 days after infection, the blood was collected before administration (TO),8 days after administration (T8),16 days after administration (T16) and 3 day after ceasing administration (P3), and the duck serum was separated and frozen for storage. […] Duck serum DNA (DHBV-DNA) determination: different duck sera in a batch were determined for duck blood DHBV-DNA level with real time fluorescent quantitative PCR. Statistics analysis: paired and grouped analysis was used to calculate the significance of inhibition of drug on duck serum DHBV-DNA for assessment.

in vivo = conditions: rat
Method: 12 male SD rats were divided into 4 groups with 3 SD rats in each group. […] […] Each rat with oral administration was collected for whole blood samples which were prepared into plasma 15, 30 min and 1, 2, 4, 8, 24 h continuously after administration.

Toll-like receptor 8 = Toll-like receptor 8 (Homo sapiens (Human), UniProt Q9NR97); experiment: Toll-like receptor 8 in vitro receptor binding activity screen (HEK-blue hTLR8 cell, alkaline phosphatase/Quanti-Blue readout); type: cell-based
Chain of Toll-like receptor 8 (Q9NR97 27-1041): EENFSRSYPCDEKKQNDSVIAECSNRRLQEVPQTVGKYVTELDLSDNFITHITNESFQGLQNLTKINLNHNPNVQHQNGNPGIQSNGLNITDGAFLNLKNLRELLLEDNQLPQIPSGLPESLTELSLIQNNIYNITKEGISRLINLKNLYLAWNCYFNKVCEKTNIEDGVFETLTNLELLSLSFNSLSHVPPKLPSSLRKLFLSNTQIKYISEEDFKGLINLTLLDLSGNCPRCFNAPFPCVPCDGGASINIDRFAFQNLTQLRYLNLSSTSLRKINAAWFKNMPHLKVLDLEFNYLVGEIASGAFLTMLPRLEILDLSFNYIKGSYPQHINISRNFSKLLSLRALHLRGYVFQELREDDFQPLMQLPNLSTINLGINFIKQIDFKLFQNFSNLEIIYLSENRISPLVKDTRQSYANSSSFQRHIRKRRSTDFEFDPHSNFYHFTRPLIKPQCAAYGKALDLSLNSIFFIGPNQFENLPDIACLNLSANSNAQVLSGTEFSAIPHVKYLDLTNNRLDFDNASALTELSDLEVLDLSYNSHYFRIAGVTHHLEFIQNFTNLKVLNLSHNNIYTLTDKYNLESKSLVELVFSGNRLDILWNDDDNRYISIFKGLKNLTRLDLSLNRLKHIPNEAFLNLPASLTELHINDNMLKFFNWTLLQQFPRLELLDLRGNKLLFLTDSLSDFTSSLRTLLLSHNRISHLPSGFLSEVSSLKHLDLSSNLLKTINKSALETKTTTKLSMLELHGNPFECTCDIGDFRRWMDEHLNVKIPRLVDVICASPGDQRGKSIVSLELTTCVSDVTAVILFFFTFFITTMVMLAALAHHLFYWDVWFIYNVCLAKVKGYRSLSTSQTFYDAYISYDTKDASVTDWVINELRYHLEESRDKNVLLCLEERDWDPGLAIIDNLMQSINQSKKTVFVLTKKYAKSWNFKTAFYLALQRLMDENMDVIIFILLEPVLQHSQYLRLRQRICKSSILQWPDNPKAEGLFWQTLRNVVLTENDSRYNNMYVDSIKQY
Method: as §1, §2, §3, §4, §5, §6, §7, §8, §9, §10

[2] = PBMC, 24 h, human PBMC, 24 h, Minimal Effective Concentration

CCCCOc1nc(N)c2[nH]cc(Cc3cccc(CN4CCCC4)c3)c2n1 [Example 4, 2-butoxy-7-(3-(pyrrolidine-1-ylmethyl)benzyl)-5H-pyrrolo[3,2-d]pyrimidine-4-amine]
pEC50 (Toll-like receptor 7; 24 h): 6.00 to 7.00 | minimal effective concentration [1, 2]: 0.01 to 100 µM

CCCCOc1nc(N)c2[nH]cc(Cc3ccc(CN4CCCC4)cc3)c2n1 [Example 21, 2-butoxy-7-(4-(pyrrolidine-1-ylmethyl)benzyl)-5H-pyrrolo[3,2-d]pyrimidine-4-amine]
efficacy by HBV copy numbers in plasma and liver compared with GS-9620 (hepatitis b virus): better efficacy | Duck serum HBV-DNA inhibition % (duck hepatitis b virus; 5 mg/kg intragastric once every day for 16 days, P3): 95.55 ± 3.56 % | Duck serum HBV-DNA inhibition % (duck hepatitis b virus; 5 mg/kg intragastric once every day for 16 days, T8): 99.96 ± 0.06 % | inhibition rate compared with GS-9620 (duck hepatitis b virus; 5 mg/kg, one administration everyday): significant advantage | Duck serum HBV-DNA inhibition % (duck hepatitis b virus; 20 mg/kg intragastric once every third day, P3 (3 days after ceasing administration)): 92.81 ± 13.79 % | Duck serum HBV-DNA inhibition % (duck hepatitis b virus; 20 mg/kg intragastric once every third day, T8 (8 days after administration)): 100.0 ± 0 % | Duck serum HBV-DNA inhibition % (duck hepatitis b virus; 20 mg/kg intragastric once every third day, T16 (16 days after administration)): 98.80 ± 1.84 % | rebound of HBV-DNA replication (duck hepatitis b virus; 20 mg/kg one administration every third day, 3 days after ceasing administration): no rebound | inhibition rate compared with GS-9620 (duck hepatitis b virus; 20 mg/kg, one administration every third day): roughly comparable | AUC(0-inf) (in vivo; male, SD, iv, 1 mg/kg): 0.676 µM·h | AUC(0-t) (in vivo; male, SD, iv, 1 mg/kg): 0.641 µM·h | Cmax (in vivo; male, SD, iv, 1 mg/kg): 478 nM | Vd (in vivo; male, SD, iv, 1 mg/kg): 29 L/kg | clearance (in vivo; male, SD, iv, 1 mg/kg): 65.8 mL/min/kg | half-life (in vivo; male, SD, iv, 1 mg/kg): 346 min | Mean plasma drug concentration (in vivo; male, SD, iv, 1 mg/kg, 0.083 h): 318 nM | Mean plasma drug concentration (in vivo; male, SD, iv, 1 mg/kg, 0.25 h): 141 nM | Mean plasma drug concentration (in vivo; male, SD, iv, 1 mg/kg, 0.5 h): 109 nM | Mean plasma drug concentration (in vivo; male, SD, iv, 1 mg/kg, 1 h): 74.3 nM | Mean plasma drug concentration (in vivo; male, SD, iv, 1 mg/kg, 2 h): 48.9 nM | Mean plasma drug concentration (in vivo; male, SD, iv, 1 mg/kg, 4 h): 37.7 nM | Mean plasma drug concentration (in vivo; male, SD, iv, 1 mg/kg, 8 h): 31.6 nM | Mean plasma drug concentration (in vivo; male, SD, iv, 1 mg/kg, 24 h): 3.94 nM | AUC(0-inf) (in vivo; male, SD, po, 5 mg/kg): 0.749 µM·h | AUC(0-t) (in vivo; male, SD, po, 5 mg/kg): 0.699 µM·h | Cmax (in vivo; male, SD, po, 5 mg/kg): 186 nM | half-life (in vivo; male, SD, po, 5 mg/kg): 374 min | Mean plasma drug concentration (in vivo; male, SD, po, 5 mg/kg, 0.25 h): 69.4 nM | Mean plasma drug concentration (in vivo; male, SD, po, 5 mg/kg, 0.5 h): 41.6 nM | Mean plasma drug concentration (in vivo; male, SD, po, 5 mg/kg, 1 h): 36.4 nM | Mean plasma drug concentration (in vivo; male, SD, po, 5 mg/kg, 2 h): 186 nM | Mean plasma drug concentration (in vivo; male, SD, po, 5 mg/kg, 4 h): 51.2 nM | Mean plasma drug concentration (in vivo; male, SD, po, 5 mg/kg, 8 h): 23.9 nM | Mean plasma drug concentration (in vivo; male, SD, po, 5 mg/kg, 24 h): 5.25 nM | exposure compared with GS-9620 (in vivo): higher exposure | half-life compared with GS-9620 (in vivo): longer half-life | pEC50 (Toll-like receptor 7; 24 h): 6.00 to 7.00 | pEC50 (Toll-like receptor 7; head-to-head test): 6.80 | in vitro receptor binding activity to Toll-like receptor 7 compared with GS-9620 (Toll-like receptor 7; versus control GS-9620): higher | minimal effective concentration [1, 2]: 1e-05 to 0.001 µM | minimal effective concentration ([1]; PBMC, 24 h, human PBMC, 24 h, head-to-head test): 0.005 µM | TNF-α inducing activity compared with GS-9620 ([1]; PBMC, versus control GS-9620): comparable | in vitro IFN-α inducing activity compared with GS-9620 ([1]; PBMC, versus control GS-9620): higher | TNF-α MEC ([1]; human PBMC, 24 h, head-to-head test): 500 nM | pEC50 (Toll-like receptor 8; HEK-blue hTLR8 cell, head-to-head test, read-out: TLR8 EC50): 4.93 | in vitro receptor binding activity to Toll-like receptor 8 compared with GS-9620 (Toll-like receptor 8; versus control GS-9620): lower

CCCCOc1nc(N)c2[nH]cc(Cc3ccc(CN4CCCC4)nc3)c2n1 [Example 22, 2-butoxy-7-((6-(pyrrolidine-1-ylmethyl)pyridine-3-yl)methyl)-5H-pyrrolo[3,2-d]pyrimidine-4-amine]
pEC50 (Toll-like receptor 7; 24 h): 6.00 to 7.00 | minimal effective concentration [1, 2]: 0.001 to 0.01 µM

CCCCOc1nc(N)c2[nH]cc(Cc3ccc4c(c3)CNCC4)c2n1 [Example 28, 2-butoxy-7-((1,2,3,4-tetrahydroisoquinoline-7-yl)methyl)-5H-pyrrolo[3,2-d]pyrimidine-4-amine]
pEC50 (Toll-like receptor 7; 24 h): 6.00 to 7.00 | minimal effective concentration [1, 2]: 0.001 to 0.01 µM
